Reference: ChEMBL document CHEMBL1132561, “Identification and characterization of m1 selective muscarinic receptor antagonists1” (J Med Chem, 1999)

Columns and labels:
[1] = target: T1, Muscarinic acetylcholine receptor M2 (Homo sapiens, UniProt P08172); experiment: biochemical; assay type: cell-based, CHO
T1 sequence (P08172 whole entry): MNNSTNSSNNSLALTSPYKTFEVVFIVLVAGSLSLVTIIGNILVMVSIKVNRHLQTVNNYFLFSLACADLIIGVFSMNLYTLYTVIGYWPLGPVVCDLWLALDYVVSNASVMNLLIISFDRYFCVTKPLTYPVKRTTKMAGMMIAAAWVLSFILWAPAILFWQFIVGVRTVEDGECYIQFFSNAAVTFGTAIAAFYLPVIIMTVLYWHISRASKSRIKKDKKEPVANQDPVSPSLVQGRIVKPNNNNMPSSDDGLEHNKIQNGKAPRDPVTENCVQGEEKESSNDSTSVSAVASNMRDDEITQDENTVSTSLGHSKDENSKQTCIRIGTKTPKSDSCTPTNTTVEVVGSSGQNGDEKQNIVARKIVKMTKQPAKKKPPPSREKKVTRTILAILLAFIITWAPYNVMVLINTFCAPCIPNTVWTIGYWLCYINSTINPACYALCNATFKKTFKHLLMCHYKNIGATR
Description: Displacement of [3H]NMS binding to human Muscarinic acetylcholine receptor M2 using membranes from transfected CHO cells

[2] = target: T2, Muscarinic acetylcholine receptor M4 (Homo sapiens, UniProt P08173); experiment: biochemical; assay type: cell-based, CHO
T2 sequence (P08173 whole entry): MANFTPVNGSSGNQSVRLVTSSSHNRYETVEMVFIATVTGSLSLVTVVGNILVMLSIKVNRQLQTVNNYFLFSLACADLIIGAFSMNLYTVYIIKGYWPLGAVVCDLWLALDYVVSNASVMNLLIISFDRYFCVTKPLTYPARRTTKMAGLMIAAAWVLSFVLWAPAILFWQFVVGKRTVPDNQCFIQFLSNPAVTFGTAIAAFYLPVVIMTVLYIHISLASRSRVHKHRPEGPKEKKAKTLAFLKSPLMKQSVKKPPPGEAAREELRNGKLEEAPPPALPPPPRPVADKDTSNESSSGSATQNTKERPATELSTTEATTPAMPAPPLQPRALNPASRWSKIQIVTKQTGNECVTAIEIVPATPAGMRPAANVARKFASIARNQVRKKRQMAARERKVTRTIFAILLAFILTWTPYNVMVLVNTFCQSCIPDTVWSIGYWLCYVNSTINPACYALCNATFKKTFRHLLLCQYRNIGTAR
Description: Displacement of [3H]NMS binding to human Muscarinic acetylcholine receptor M4 using membranes from transfected CHO cells

Structure (SMILES)	IC50 [1] [µM]	IC50 [2] [µM]
CCCCCCCCOC(=O)C1=C(c2ccccc2)CCN(CC)C1	0.0525	0.259
CCN1CC=C(c2ccccc2)C(C(=O)OCCCc2ccccc2)C1 (configuration not stated)	2.21	1.13
CCN1CCC(c2ccccc2)=C(C(=O)OCCCc2ccccc2)C1	1.04	1.16
CCN1CC=C(c2ccccc2)C(C(=O)OCc2ccccc2)C1 (configuration not stated)	0.241	0.146
CCCCCCOC(=O)[C@H]1CN(CC)CC[C@H]1c1ccccc1	0.405	0.573
CCCCCCCCOC(=O)C1CN(CC)CC=C1c1ccccc1 (configuration not stated)	–	1.25
CCN1CC=C(c2ccccc2)C(C(=O)OCC(c2ccccc2)c2ccccc2)C1 (configuration not stated)	0.475	4.16
CCN1CCC(c2ccccc2)=C(C(=O)OCc2ccccc2)C1	0.451	0.473
CCN1CCC(c2ccccc2)=C(C(=O)OCC(c2ccccc2)c2ccccc2)C1	2.57	7.71
